Measured values taken from the supplement of paper PMC10307832.

Tests used:
Experiment in all cases: relative viability (nuclei count vs DMSO), 5 days (fraction); higher = more cells survive
PC-3 [JPC-3] = tested on: PC-3 [JPC-3]
How it was run: (§1)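 The day after seeding in 1536-well plates, lung cancer cell lines were treated by pin tool with a single drug, or with a fixed anchor-drug dose together with five library-drug doses (not always all listed) in √10 steps. After 5 days, a combined fix-and-stain solution (final 0.05% Triton X-100, 1% formaldehyde, 1 ug/ml Hoechst) was added. Nuclei counted on 4× images gave relative viability as treated counts over vehicle counts, reported as the median of duplicate plates.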

LU99A = tested on: LU99A
How it was run: as §1

NCI-H2405 = tested on: NCI-H2405
How it was run: as §1

HCC-78 = tested on: HCC-78
How it was run: as §1

CAL-12T = tested on: CAL-12T
How it was run: as §1

NCI-H1755 = tested on: NCI-H1755
How it was run: as §1

LOU-NH91 = tested on: LOU-NH91
How it was run: as §1

NCI-H460 = tested on: NCI-H460
How it was run: as §1

LC-2-ad = tested on: LC-2-ad
How it was run: as §1

UMC-11 = tested on: UMC-11
How it was run: as §1

NCI-H3122 = tested on: NCI-H3122
How it was run: as §1

NCI-H2228 = tested on: NCI-H2228
How it was run: as §1

ABC-1 = tested on: ABC-1
How it was run: as §1

RERF-LC-KJ = tested on: RERF-LC-KJ
How it was run: as §1

ChaGo-K-1 = tested on: ChaGo-K-1
How it was run: as §1

NCI-H1944 = tested on: NCI-H1944
How it was run: as §1

NCI-H1651 = tested on: NCI-H1651
How it was run: as §1

NCI-H2170 = tested on: NCI-H2170
How it was run: as §1

HCC-366 = tested on: HCC-366
How it was run: as §1

NCI-H2087 = tested on: NCI-H2087
How it was run: as §1

Question: Which relative viability (PC-3 [JPC-3]; first compound 0.01 µM) does the source give for `O=c1cc(N2CCOCC2)oc2c(-c3cccc4c3sc3ccccc34)cccc12` + C[C@@H](Oc1cc(-c2cnn(C3CCNCC3)c2)cnc1N)c1c(Cl)ccc(F)c1Cl [Crizotinib] (partner 1 µM) here?
Answer: 0.931

Question: And the relative viability (PC-3 [JPC-3]; first compound 0.03162 µM)?
Answer: 0.903

Question: And the relative viability (PC-3 [JPC-3]; first compound 0.1 µM)?
Answer: 0.938

Question: And the relative viability (PC-3 [JPC-3]; first compound 0.3162 µM)?
Answer: 0.941

Question: And the relative viability (PC-3 [JPC-3]; first compound 1 µM)?
Answer: 1.01

Question: What about the relative viability (LU99A; first compound 0.01 µM) of the same molecule?
Answer: 0.647

Question: What about the relative viability (LU99A; first compound 0.03162 µM) of the same molecule?
Answer: 0.574

Question: What about the relative viability (LU99A; first compound 0.1 µM) of the same molecule?
Answer: 0.577

Question: What about the relative viability (LU99A; first compound 0.3162 µM) of the same molecule?
Answer: 0.535

Question: What about the relative viability (LU99A; first compound 1 µM) of the same molecule?
Answer: 0.573

Question: And the relative viability (NCI-H2405; first compound 0.01 µM)?
Answer: 0.814

Question: What about the relative viability (NCI-H2405; first compound 0.03162 µM) of the same molecule?
Answer: 0.856

Question: What about the relative viability (NCI-H2405; first compound 0.1 µM) of the same molecule?
Answer: 0.915

Question: And the relative viability (NCI-H2405; first compound 0.3162 µM)?
Answer: 0.849

Question: And the relative viability (NCI-H2405; first compound 1 µM)?
Answer: 0.84

Question: What about the relative viability (HCC-78; first compound 0.01 µM) of the same molecule?
Answer: 0.342

Question: What about the relative viability (HCC-78; first compound 0.03162 µM) of the same molecule?
Answer: 0.33

Question: What about the relative viability (HCC-78; first compound 0.1 µM) of the same molecule?
Answer: 0.331

Question: And the relative viability (HCC-78; first compound 0.3162 µM)?
Answer: 0.326

Question: And the relative viability (HCC-78; first compound 1 µM)?
Answer: 0.353

Question: What about the relative viability (CAL-12T; first compound 0.01 µM) of the same molecule?
Answer: 0.58

Question: And the relative viability (CAL-12T; first compound 0.03162 µM)?
Answer: 0.657

Question: What about the relative viability (CAL-12T; first compound 0.1 µM) of the same molecule?
Answer: 0.767

Question: And the relative viability (CAL-12T; first compound 0.3162 µM)?
Answer: 0.591

Question: What about the relative viability (CAL-12T; first compound 1 µM) of the same molecule?
Answer: 0.775

Question: What about the relative viability (NCI-H1755; first compound 0.01 µM) of the same molecule?
Answer: 0.875

Question: And the relative viability (NCI-H1755; first compound 0.03162 µM)?
Answer: 0.812

Question: And the relative viability (NCI-H1755; first compound 0.1 µM)?
Answer: 0.838

Question: And the relative viability (NCI-H1755; first compound 0.3162 µM)?
Answer: 0.807

Question: What about the relative viability (NCI-H1755; first compound 1 µM) of the same molecule?
Answer: 0.767

Question: And the relative viability (LOU-NH91; first compound 0.01 µM)?
Answer: 0.705

Question: What about the relative viability (LOU-NH91; first compound 0.03162 µM) of the same molecule?
Answer: 0.695

Question: What about the relative viability (LOU-NH91; first compound 0.1 µM) of the same molecule?
Answer: 0.717

Question: And the relative viability (LOU-NH91; first compound 0.3162 µM)?
Answer: 0.738

Question: And the relative viability (LOU-NH91; first compound 1 µM)?
Answer: 0.698

Question: What about the relative viability (NCI-H460; first compound 0.01 µM) of the same molecule?
Answer: 0.822

Question: And the relative viability (NCI-H460; first compound 0.03162 µM)?
Answer: 0.99

Question: And the relative viability (NCI-H460; first compound 0.1 µM)?
Answer: 0.988

Question: What about the relative viability (NCI-H460; first compound 0.3162 µM) of the same molecule?
Answer: 1.1

Question: And the relative viability (NCI-H460; first compound 1 µM)?
Answer: 0.922

Question: What about the relative viability (LC-2-ad; first compound 0.01 µM) of the same molecule?
Answer: 0.492

Question: What about the relative viability (LC-2-ad; first compound 0.03162 µM) of the same molecule?
Answer: 0.427

Question: What about the relative viability (LC-2-ad; first compound 0.1 µM) of the same molecule?
Answer: 0.487

Question: What about the relative viability (LC-2-ad; first compound 0.3162 µM) of the same molecule?
Answer: 0.397

Question: What about the relative viability (LC-2-ad; first compound 1 µM) of the same molecule?
Answer: 0.537

Question: What about the relative viability (UMC-11; first compound 0.01 µM) of the same molecule?
Answer: 0.69

Question: What about the relative viability (UMC-11; first compound 0.03162 µM) of the same molecule?
Answer: 0.648

Question: What about the relative viability (UMC-11; first compound 0.1 µM) of the same molecule?
Answer: 0.592

Question: And the relative viability (UMC-11; first compound 0.3162 µM)?
Answer: 0.631

Question: What about the relative viability (UMC-11; first compound 1 µM) of the same molecule?
Answer: 0.565

Question: And the relative viability (NCI-H3122; first compound 0.01 µM)?
Answer: 0.269

Question: What about the relative viability (NCI-H3122; first compound 0.03162 µM) of the same molecule?
Answer: 0.273

Question: And the relative viability (NCI-H3122; first compound 0.1 µM)?
Answer: 0.274

Question: And the relative viability (NCI-H3122; first compound 0.3162 µM)?
Answer: 0.297

Question: And the relative viability (NCI-H3122; first compound 1 µM)?
Answer: 0.284

Question: And the relative viability (NCI-H2228; first compound 0.03162 µM)?
Answer: 0.479

Question: What about the relative viability (NCI-H2228; first compound 0.1 µM) of the same molecule?
Answer: 0.501

Question: What about the relative viability (NCI-H2228; first compound 0.3162 µM) of the same molecule?
Answer: 0.403

Question: What about the relative viability (NCI-H2228; first compound 1 µM) of the same molecule?
Answer: 0.471

Question: And the relative viability (ABC-1; first compound 0.01 µM)?
Answer: 1.26

Question: And the relative viability (ABC-1; first compound 0.03162 µM)?
Answer: 0.654

Question: And the relative viability (ABC-1; first compound 0.1 µM)?
Answer: 0.983

Question: And the relative viability (ABC-1; first compound 0.3162 µM)?
Answer: 1.06

Question: And the relative viability (ABC-1; first compound 1 µM)?
Answer: 1.11

Question: What about the relative viability (RERF-LC-KJ; first compound 0.01 µM) of the same molecule?
Answer: 0.838

Question: What about the relative viability (RERF-LC-KJ; first compound 0.03162 µM) of the same molecule?
Answer: 0.798

Question: And the relative viability (RERF-LC-KJ; first compound 0.1 µM)?
Answer: 0.871

Question: And the relative viability (RERF-LC-KJ; first compound 0.3162 µM)?
Answer: 0.823

Question: And the relative viability (RERF-LC-KJ; first compound 1 µM)?
Answer: 0.808

Question: What about the relative viability (ChaGo-K-1; first compound 0.01 µM) of the same molecule?
Answer: 1.17

Question: And the relative viability (ChaGo-K-1; first compound 0.03162 µM)?
Answer: 1.16

Question: And the relative viability (ChaGo-K-1; first compound 0.1 µM)?
Answer: 1.23

Question: And the relative viability (ChaGo-K-1; first compound 0.3162 µM)?
Answer: 1.08

Question: And the relative viability (ChaGo-K-1; first compound 1 µM)?
Answer: 1.08

Question: And the relative viability (NCI-H1944; first compound 0.01 µM)?
Answer: 1.05

Question: What about the relative viability (NCI-H1944; first compound 0.03162 µM) of the same molecule?
Answer: 1.03

Question: What about the relative viability (NCI-H1944; first compound 0.1 µM) of the same molecule?
Answer: 1.18

Question: And the relative viability (NCI-H1944; first compound 0.3162 µM)?
Answer: 1.03

Question: And the relative viability (NCI-H1944; first compound 1 µM)?
Answer: 1.04

Question: What about the relative viability (NCI-H1651; first compound 0.01 µM) of the same molecule?
Answer: 0.878

Question: What about the relative viability (NCI-H1651; first compound 0.03162 µM) of the same molecule?
Answer: 0.92

Question: And the relative viability (NCI-H1651; first compound 0.1 µM)?
Answer: 0.948

Question: And the relative viability (NCI-H1651; first compound 0.3162 µM)?
Answer: 0.853

Question: And the relative viability (NCI-H1651; first compound 1 µM)?
Answer: 0.859

Question: What about the relative viability (NCI-H2170; first compound 0.01 µM) of the same molecule?
Answer: 1.24

Question: And the relative viability (NCI-H2170; first compound 0.03162 µM)?
Answer: 1.17

Question: What about the relative viability (NCI-H2170; first compound 0.1 µM) of the same molecule?
Answer: 1.24

Question: And the relative viability (NCI-H2170; first compound 0.3162 µM)?
Answer: 1.12

Question: What about the relative viability (NCI-H2170; first compound 1 µM) of the same molecule?
Answer: 1.17

Question: And the relative viability (HCC-366; first compound 0.01 µM)?
Answer: 0.457

Question: And the relative viability (HCC-366; first compound 0.03162 µM)?
Answer: 0.506

Question: What about the relative viability (HCC-366; first compound 0.1 µM) of the same molecule?
Answer: 0.66

Question: And the relative viability (HCC-366; first compound 0.3162 µM)?
Answer: 0.471

Question: And the relative viability (HCC-366; first compound 1 µM)?
Answer: 0.598

Question: And the relative viability (NCI-H2087; first compound 0.01 µM)?
Answer: 0.884

Question: What about the relative viability (NCI-H2087; first compound 0.03162 µM) of the same molecule?
Answer: 1.07

Question: What about the relative viability (NCI-H2087; first compound 0.1 µM) of the same molecule?
Answer: 0.84

Question: And the relative viability (NCI-H2087; first compound 0.3162 µM)?
Answer: 0.682

Question: And the relative viability (NCI-H2087; first compound 1 µM)?
Answer: 0.838
